Results published in patent publication US11541045B2, “Methods of treating cancer with farnesyltransferase inhibitors” (Kura Oncology, Inc., priority 2017, dated 2023).
Values joined by “and” are separate entries in the source; they are usually repeats but may differ in a detail not shown here. Equal values may be shown once. “Also recorded” adds a separate entry of the source.

Columns and labels:
Assay type in all cases: in vivo, human
[1] = system: relapsed and refractory AML; assay: INT-17 trial, Phase 2, tipifarnib, analysed by CXCR4 expression; conditions: relapsed or refractory AML patients, highest quintile of CXCR4 expression
Procedure: (§1) Previous clinical studies with tipifarnib were performed in newly diagnosed AML in elderly patients with poor risk AML (CTEP-20, Phase 2) or relapsed and refractory AML (INT-17, Phase 2). In these studies, patient selection was not based on genetic markers. Anecdotal evidence of tipifarnib single agent activity was reported.

[2] = system: peripheral T-cell lymphoma (PTCL); assay: Phase II clinical study of tipifarnib in relapsed or refractory PTCL patients; design: key to Response: PR: partial response; SD: stable disease; PD: progressive disease
Source text: A Phase II clinical study of tipifarnib can be conducted with the primary objective being to assess the antitumor activity of tipifarnib, in terms of Objective Response Rate (ORR) in subjects with relapsed or refractory advanced peripheral T-cell lymphoma (PTCL). Determination of objective tumor response can be performed by the International Workshop Criteria (IWC) and/or measurable cutaneous disease according to the modified Severity Weighted Assessment Tool (mSWAT). Secondary objectives can include accessing the effect of tipifarnib on rate of progression-free survival (PFS) at 1 year, duration of response (DOR), overall survival (OS); and safety and tolerability of tipifarnib.
This Phase II study investigates the antitumor activity in terms of ORR of tipifarnib in subjects with PTCL. Up to 18 eligible subjects with advanced PTCL are enrolled. The total number of patients can be extended to 30.
Subjects receive tipifarnib administered at a starting dose of 900 mg, orally with food, twice a day (bid) for 7 days in alternating weeks (Days 1-7 and 15-21) in 28 day cycles. At the discretion of the investigator, the dose of tipifarnib can be increased to 1200 mg bid if the subject has not experienced dose limiting toxicities at the 900 mg dose level. Subjects who develop serious adverse events (SAE) or ≥grade 2 treatment-emergent adverse events (TEAE) that are deemed related to tipifarnib and lasting ≥14 days will not undergo dose escalation. Stepwise 300 mg dose reductions to control treatment-related, treatment-emergent toxicities are also allowed.
In the absence of unmanageable toxicities, subjects can continue to receive tipifarnib treatment until disease progression. If a complete response is observed, therapy with tipifarnib can be maintained for at least 6 months beyond the start of response.
Tumor assessments are performed at screening and at least once every approximately 8 weeks for 6 months (cycles 2, 4, 6) and once every approximately 12 weeks (cycles 9, 12, 15, etc.) thereafter, until disease progression, starting at the end of Cycle 2. Additional tumor assessments can be conducted if deemed necessary by the Investigator. Subjects who discontinue tipifarnib treatment for reasons other than disease progression must continue tumor assessments until disease progression, withdrawal of subject's consent to study
The study was an eighteen patient Phase II study with a Simon two-stage design (11+7). Two responses were required after the first eleven evaluable patients in order to proceed to second stage. Enrollment is to be extended to thirty patients if five responses are seen in the first stage.
The dose of 900 mg b.i.d. for seven days in alternate week dosing was amended during the first stage to 600 mg b.i.d. for seven days in alternate week dosing.
Formalin-fixed, paraffin-embedded (FFPE) samples were obtained from all subjects for the analysis of gene expression using RNA Seq and of single nucleotide variation (SNV, including SNPs and mutations) using next generation sequencing (NGS). Thirteen samples passed quality control (QC) for expression analysis. Sixteen samples passed quality control for SNV analysis.
This example describes a Phase 2 study (ClinicalTrials.gov Identifier: NCT02464228) designed to investigate the antitumor activity of tipifarnib in 18 patients with relapsed or refractory PTCL, and certain results of the study.
Primary outcome measures: Objective Response Rate (ORR) by the International Workshop Criteria (IWC) and/or measurable cutaneous disease according to the modified Severity Weighted Assessment Tool (mSWAT). Secondary outcome measures include the effect of tipifarnib on rate of progression-free survival (PFS) at 1 year, duration of response (DOR); and safety and tolerability of tipifarnib.
Study Design: oral tipifarnib 300 mg twice daily (bid) on days 1-21 of 28-day treatment cycles. A Simon two-stage design for ORR. […]

[3] = system: newly diagnosed AML in elderly patients with poor risk AML; assay: CTEP-20 trial, Phase 2, tipifarnib, analysed by CXCL12 expression
Procedure: as §1

[4] = Grade ≥3 drug-related TEAEs, % of pts

For `Cn1cncc1[C@@](N)(c1ccc(Cl)cc1)c1ccc2c(c1)c(-c1cccc(Cl)c1)cc(=O)n2C` [tipifarnib], the median survival [1] was 182 days, the “Median overall PFS” value ([2]; 5th line, all subjects with NGS data, reference and variant CXCL12 3′ UTR) was 53 days and the “HR (PFS)” value ([2]; CXCL12/CXCR4 ratio >0.200 versus ≤0.200, P=0.004) was 0.22. For the same compound, the anemia [2, 4] was 32%, the febrile neutropenia [2, 4] was 32% and the leukopenia [2, 4] was 47%. For the same compound, the lymphopenia [2, 4] was 16%, the neutropenia [2, 4] was 74% and the thrombocytopenia [2, 4] was 58%. The “Safety and Tolerability” value ([2]; PTCL patients, overall statement) was “consistent with known safety profile; also recorded: generally well-tolerated”, the Response ([2]; Table 1, one line per subject 1-18, PTCL patients, 900 mg b.i.d. amended to 600 mg b.i.d., seven days in alternate weeks) was “PR (3×) and PD (11×) and SD (4×)” and the Response ([2]; Table 2, RNA Seq Experiment#1, one cell per patient (2002, 2004, 3002, 4001, 2001, 4004)) was “PD (3×) and SD (2×) and PR”. The Response ([2]; Table 3, RNA Seq Experiment#2, one cell per patient (2005, 2006, 4005, 4006, 4007, 6003, 2007)) was “PD (5×) and SD and PR”, the “median duration of durable responses” value ([2]; cohort of PTCL patients of Example II) was 11 months and the “median time to progression” value ([2]; five patients with tumor size reductions, associated with elevated CXCL12 expression (p<0.001)) was > 6 mo. The “HR (PFS)” value ([2]; high versus low CXCL12 expression, FIG. 13A, p=0.0015) was 0.22, the “Discontinuation for Progressive Disease” value ([2]; of 17 discontinuations) was 16 n and the mPFS ([2]; patients with CXCL12 3′ UTR SNV rs2839695, N=7, first time point (FIG. 4)) was 48 days. The “median progression free survival (mPFS)” value ([2]; patients with CXCL12/CXCR4 ratio >0.200 (N=5)) was 189 days, the “median progression free survival (mPFS)” value ([2]; patients with CXCL12/CXCR4 ratio ≤0.200 (N=7)) was 51 days and the mPFS ([2]; patients with CXCL12 reference 3′ UTR (8 patients), FIG. 12A) was 133 days. The mPFS ([2]; patients with CXCL12 rs2839695, N=7, later timepoint (FIG. 6)) was 50 days, the mPFS ([2]; patients with CXCL12 variant 3′ UTR (8 with rs2839695 and 1 novel variant), FIG. 12B) was 34 days and the mPFS ([2]; patients with no SNV in the 3′ UTR of CXCL12 (reference 3′ UTR), N=8, first time point (FIG. 4)) was 189 days. The mPFS ([2]; patients with no SNV in the 3′ UTR of CXCL12, N=8, later timepoint (FIG. 6)) was 134 days, the mPFS ([2]; subjects with high CXCL12 expression, FIG. 13A) was 190 days and the “activity in KIR3DL2-expressing PTCL” value ([2]; subjects with high KIR3DL2 expression (e.g., over 1000)) was “no activity”. For the same compound, the mPFS ([2]; subjects with low CXCL12 expression, FIG. 13A) was 49 days, the mPFS ([3]; second CXCL12 expression tertile) was 89 days and the mPFS ([3]; third tertile (lowest level of CXCL12 expression)) was 33 days. For the same compound, the “median progression free survival (mPFS)” value ([3]; treatment naïve elderly, frail AML patients, highest CXCL12 expression tertile) was 431 days.
